In paper PMC8305768, “Design, Synthesis and Antiparasitic Evaluation of Click Phospholipids” (Molecules, 2021):

Assays:
CYP2C19 = target: T1, CYP2C19 (Homo sapiens, UniProt P33261); test: Cytochrome P450 inhibition assay (P450-Glo) CYP2C19; assay type: in vitro ADME; conditions: compounds 10 μM; miltefosine 10 μM or 1 μM
T1 construct: purchased Corning Inc; host or cells: baculovirus-infected insect cells
From the text: (§1) Cytochrome (CYP) P450 inhibition assay: These assays made use of microsomal preparations of CYP450 (1A2, 2C9, 2C19, 2D6 and 3A4) from baculovirus-infected insect cells (Corning Inc., Corning, NY, USA) and cytochrome c reductase (and cytochrome b5 for CYP450 3A4). For detection of CYP450 activity, the luminescence-based P450-Glo (Promega Corp., Madison, WI, USA) assay system was used that contained a luminogenic CYP450 substrate, lyophilized luciferin detection reagent and reconstitution buffer. The substrates were luciferin derivatives of CYP450-specific substrates that produce (4S)-4,5-dihydro-2-(6-hydroxybenzothiazolyl)-4-thiazolecarboxylic acid (D-luciferin) after cleavage by CYP450 (CYP450 3A4, luciferin-IPA; CYP450 2C19, luciferin-H EGE; CYP450 2C9, luciferin-H; CYP450 2D6, luciferin-ME EGE; CYP450 1A2, luciferin-1A2). CYP450 reactions were initiated by addition of the NADPH regeneration system to the enzyme–substrate mixture with the luciferin detection reagent stopping the reaction and the D-luciferin being converted to oxyluciferin under the production of light being proportional to the CYP450 activity. The CYP450 assays were performed using the Tecan Fluent liquid-handling automation platform (Tecan Group Ltd., Mannedorf, Switzerland) in the 384-well assay format. Compounds were added into an empty 384-well plate (100 nL/well in 1% v/v DMSO) using the Echo 550 Liquid Handler followed by the addition of 5 μL/well of the CYP450/substrate mixture and incubation for 30 min at 37 °C, after which the reaction was initiated by the addition of the 5 μL/well NADPH regeneration system. After a further 30-min incubation at 37 °C, the CYP450 reaction was stopped and the luciferase reaction was simultaneously initiated by addition of 10 μL/well of luciferin detection reagent, followed by an additional 30-min incubation at 37 °C. The luminescence signal was detected using an Infinite M1000 PRO plate reader (Tecan Group Ltd., Mannedorf, Switzerland). The NCs yielded 0% inhibition (1% v/v DMSO) and standard CYP450 specific inhibitors were used as positive controls, yielding 100% inhibition (CYP450 1A2, alpha-naphthoflavone; CYP450 2C9, sulfaphenazole; CYP450 2C19, troglitazone; CYP450 2D6, quinidine; CYP450 3A4, ketoconazole).
(§2) Data analysis: The screening data were obtained in triplicate and analysed using ActivityBase (IDBS, Guildford, UK), and outlier elimination in the control wells was performed using the 3-sigma method. Unless stated, dose–response experiments were performed in the 11-point format with the IC50 value, Hill slope, minimum signal and maximum signal for each dose–response curve obtained using a four-parameter logistic fit in the XE module of ActivityBase (IDBS).

[1] = tested on: L. infantum (MHOM/MA/67/ITMAP-263) intracellular amastigotes; test: Activity against L. infantum MHOM/MA/67/ITMAP-263 intramacrophage amastigotes (luciferase, THP-1); assay type: cell-based, Leishmania infantum
Procedure: A cloned line of L. infantum (MOM/ MA671TMAP263) promastigotes were maintained in RPMI 1640 medium supplemented with 10% heat-inactivated foetal bovine serum (FBS), 2 mM L-glutamine, 20 mM HEPES and 1% Penn/Strep. Maintenance of promastigotes was done in T-25 flasks at 26 °C by subpassage at […] every 5−6 days. L. infantum axenic amastigotes expressing episomal luciferase were maintained in MAA/20 (axenic amastigote medium) at 37 °C under a 5% CO2 environment with subpassages every 5 days. LUC-positive parasites were selected by addition of geneticin sulphate (G418) to the culture at 60 μg/mL.
The efficacy of compounds against L. infantum intracellular amastigotes was determined according to the literature with slight modifications. Briefly, 1 × 10^6 THP-1 cell/mL were seeded in a 96 well flat bottom plate (100 µL/well) and differentiated into macrophages by addition of 20 ng/mL of phorbol-myristate 13-acetate (PMA, Sigma, Saint Louis, MI, USA) for 18 h, followed by replacement with fresh medium for 24 h. Then these cells were infected with luciferase-expressing L. infantum axenic amastigotes in a macrophage:amastigotes ratio of 1:10 for 4 h at 37 °C, 5% CO2. Non-internalized parasites were washed and compounds were added at different concentrations in a final volume of 100 µL. After 72 h of incubation, the media was substituted by 100 µL of PBS. Then of 25 µL of Glo-lysis buffer from the Steady-Glo Luciferase Assay System (Promega, Madison, WI, USA) was added mixed and incubated for 10 min with agitation at 100 rpm. Finally, 30 µL of the Steady-Glo reagent (Promega, Madison, WI, USA) was then added to the plate and was incubated for 15 min with agitation at 100 rpm and then the content of each well was transferred to white-bottom 96-well plates. Luminescence intensity was read using a Synergy 2 Multi-Mode Reader (Biotek, Winooski, VT, USA). The antileishmanial effect was evaluated by the determination of the IC50 value (concentration required to inhibit growth in 50%) and calculated by the non-linear regression analysis using GraphPad Prism version 8.1.1 for Windows (GraphPad Software, San Diego CA, USA).

CYP1A2 = target: T2, CYP1A2 (Homo sapiens, UniProt P05177); test: Cytochrome P450 inhibition assay (P450-Glo) CYP1A2; assay type: in vitro ADME; conditions: compounds 10 μM; miltefosine 10 μM or 1 μM
T2 construct: purchased Corning Inc; host or cells: baculovirus-infected insect cells
T2 sequence (P05177 2-516 limits assumed): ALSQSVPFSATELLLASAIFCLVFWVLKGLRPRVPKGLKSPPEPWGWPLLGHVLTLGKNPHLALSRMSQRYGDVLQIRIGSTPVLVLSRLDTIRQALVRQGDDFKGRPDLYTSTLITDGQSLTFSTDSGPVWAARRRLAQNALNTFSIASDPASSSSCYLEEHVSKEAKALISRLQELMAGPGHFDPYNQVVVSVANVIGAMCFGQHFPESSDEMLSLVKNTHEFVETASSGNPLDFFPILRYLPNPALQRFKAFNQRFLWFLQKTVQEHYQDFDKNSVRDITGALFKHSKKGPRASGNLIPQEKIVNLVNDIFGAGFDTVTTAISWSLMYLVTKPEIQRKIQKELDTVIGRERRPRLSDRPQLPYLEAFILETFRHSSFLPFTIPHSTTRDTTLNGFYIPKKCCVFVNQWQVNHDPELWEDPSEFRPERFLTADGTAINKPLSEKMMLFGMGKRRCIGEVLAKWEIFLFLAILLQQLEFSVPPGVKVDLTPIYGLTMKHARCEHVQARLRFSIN
From the text: as §1, §2

T1 sequence (P33261 whole entry): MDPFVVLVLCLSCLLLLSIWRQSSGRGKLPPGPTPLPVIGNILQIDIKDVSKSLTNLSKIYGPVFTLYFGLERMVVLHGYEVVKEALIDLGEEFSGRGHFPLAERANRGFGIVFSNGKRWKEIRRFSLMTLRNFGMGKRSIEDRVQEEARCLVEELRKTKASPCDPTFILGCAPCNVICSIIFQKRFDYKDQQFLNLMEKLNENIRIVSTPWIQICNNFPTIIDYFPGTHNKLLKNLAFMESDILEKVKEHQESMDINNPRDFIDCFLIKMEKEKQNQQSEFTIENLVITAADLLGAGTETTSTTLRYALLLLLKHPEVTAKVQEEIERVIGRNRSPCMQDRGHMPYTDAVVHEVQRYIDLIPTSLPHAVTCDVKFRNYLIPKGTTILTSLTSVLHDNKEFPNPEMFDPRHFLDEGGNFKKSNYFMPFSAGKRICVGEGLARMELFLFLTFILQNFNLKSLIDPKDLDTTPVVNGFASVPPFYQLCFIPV

SMILES: CCCCCCCCCCCCCCCCOP(=O)([O-])OCC[N+](C)(C)C [Miltefosine, hexadecylphosphocholine, reference compound]
- % inhibition ± SD at 10 μΜ CYP2C19 (CYP2C19): 7.92%
- Selectivity Index CC50/IC50 [1]: 4.9
- IC50 ([1]; Leishmania infantum, THP-1, 72 h, read-out: L. infantum (MHOM/MA/67/ITMAP-263) Intracellular Amastigotes IC50 ± SD): 3.2 ± 1.4 µM
- % inhibition ± SD at 10 μΜ CYP1A2 (CYP1A2): –20.62%
